# Laboratory results reported in patent publication US20230085307A1, “PYRIDAZINONE COMPOUND AND HERBICIDE” (NISSAN CHEMICAL CORPORATION, priority 2019, published 2023).
# Assays:
# barnyard grass [1] = test: Test Example 3: herbicidal effect by foliage application, Wagner pot (Table 18, symbol H); type: in vivo, barnyard grass (Echinochloa crus-galli); details: amount of applied herbicide 320 g/ha
# Summary of the method: (§1)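 Plants were sown in alluvial soil held under 0.1–0.5 cm standing water and grown 14 days in a greenhouse at 25–30 °C. An emulsifiable formulation, water-diluted to the set dose, was then sprayed onto the foliage, and effects were scored three weeks later using previously defined criteria.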
# Chinese sprangletop = test: Test Example 3: herbicidal effect by foliage application, Wagner pot (Table 18, symbol D); type: in vivo, chinese sprangletop (Leptochloa chinensis); details: amount of applied herbicide 320 g/ha
# Summary of the method: as §1
# rice flat sedge = test: Test Example 3: herbicidal effect by foliage application, Wagner pot (Table 18, symbol E); type: in vivo, rice flat sedge (Cyperus iria); details: amount of applied herbicide 320 g/ha
# Summary of the method: as §1
# southern crabgrass [2] = test: Test Example 4: herbicidal effect by soil treatment (Table 19, symbol F); type: in vivo, southern crabgrass (Digitaria ciliaris); details: amount of applied herbicide 320 g/ha
# Summary of the method: (§2)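 Applied as a water-diluted emulsion, the compound was sprayed onto soil covering newly sown seeds. Evaluation came three weeks after application, in a greenhouse held at 25° C. to 30° C.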
# green foxtail [3] = test: Test Example 4: herbicidal effect by soil treatment (Table 19, symbol G); type: in vivo, green foxtail (Setaria viridis); details: amount of applied herbicide 320 g/ha
# Summary of the method: as §2
# barnyard grass [4] = test: Test Example 4: herbicidal effect by soil treatment (Table 19, symbol H); type: in vivo, barnyard grass (Echinochloa crus-galli); details: amount of applied herbicide 320 g/ha
# Summary of the method: as §2
# wild oat [5] = test: Test Example 4: herbicidal effect by soil treatment (Table 19, symbol I); type: in vivo, wild oat (Avena fatua); details: amount of applied herbicide 320 g/ha
# Summary of the method: as §2
# blackgrass [6] = test: Test Example 4: herbicidal effect by soil treatment (Table 19, symbol J); type: in vivo, blackgrass (Alopecurus myosuroides); details: amount of applied herbicide 320 g/ha
# Summary of the method: as §2
# Italian ryegrass [7] = test: Test Example 4: herbicidal effect by soil treatment (Table 19, symbol K); type: in vivo, Italian ryegrass (Lolium multiflorum); details: amount of applied herbicide 320 g/ha
# Summary of the method: as §2
# windgrass [8] = test: Test Example 4: herbicidal effect by soil treatment (Table 19, symbol L); type: in vivo, windgrass (Apera spica-venti); details: amount of applied herbicide 320 g/ha
# Summary of the method: as §2
# velvetleaf [9] = test: Test Example 4: herbicidal effect by soil treatment (Table 19, symbol M); type: in vivo, velvetleaf (Abutilon theophrasti); details: amount of applied herbicide 320 g/ha
# Summary of the method: as §2
# redroot pigweed [10] = test: Test Example 4: herbicidal effect by soil treatment (Table 19, symbol N); type: in vivo, redroot pigweed (Amaranthus retroflexus); details: amount of applied herbicide 320 g/ha
# Summary of the method: as §2
# lambsquarters [11] = test: Test Example 4: herbicidal effect by soil treatment (Table 19, symbol O); type: in vivo, lambsquarters (Chenopodium album); details: amount of applied herbicide 320 g/ha
# Summary of the method: as §2
# chickweed [12] = test: Test Example 4: herbicidal effect by soil treatment (Table 19, symbol P); type: in vivo, common chickweed (Stellaria media); details: amount of applied herbicide 320 g/ha
# Summary of the method: as §2
# persian speedwell [13] = test: Test Example 4: herbicidal effect by soil treatment (Table 19, symbol R); type: in vivo, Persian speedwell (Veronica persica); details: amount of applied herbicide 320 g/ha
# Summary of the method: as §2
# southern crabgrass [14] = test: Test Example 5: herbicidal effect by foliage application, plastic box (Table 20, symbol F); type: in vivo, southern crabgrass (Digitaria ciliaris); details: foliage application, 320 g/ha, three weeks after application
# Summary of the method: (§3)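 Sow seeds spot-wise in sterilized diluvial soil; cover with ~1.5 cm soil. Grow 14 days in greenhouse, 25° C. to 30° C. Spray foliage with emulsion diluted to predetermined amount. Rate effect after 3 weeks.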
# green foxtail [15] = test: Test Example 5: herbicidal effect by foliage application, plastic box (Table 20, symbol G); type: in vivo, green foxtail (Setaria viridis); details: foliage application, 320 g/ha, three weeks after application
# Summary of the method: as §3
# barnyard grass [16] = test: Test Example 5: herbicidal effect by foliage application, plastic box (Table 20, symbol H); type: in vivo, barnyard grass (Echinochloa crus-galli); details: foliage application, 320 g/ha, three weeks after application
# Summary of the method: as §3
# wild oat [17] = test: Test Example 5: herbicidal effect by foliage application, plastic box (Table 20, symbol I); type: in vivo, wild oat (Avena fatua); details: foliage application, 320 g/ha, three weeks after application
# Summary of the method: as §3
# blackgrass [18] = test: Test Example 5: herbicidal effect by foliage application, plastic box (Table 20, symbol J); type: in vivo, blackgrass (Alopecurus myosuroides); details: foliage application, 320 g/ha, three weeks after application
# Summary of the method: as §3
# Italian ryegrass [19] = test: Test Example 5: herbicidal effect by foliage application, plastic box (Table 20, symbol K); type: in vivo, Italian ryegrass (Lolium multiflorum); details: foliage application, 320 g/ha, three weeks after application
# Summary of the method: as §3
# windgrass [20] = test: Test Example 5: herbicidal effect by foliage application, plastic box (Table 20, symbol L); type: in vivo, windgrass (Apera spica-venti); details: foliage application, 320 g/ha, three weeks after application
# Summary of the method: as §3
# velvetleaf [21] = test: Test Example 5: herbicidal effect by foliage application, plastic box (Table 20, symbol M); type: in vivo, velvetleaf (Abutilon theophrasti); details: foliage application, 320 g/ha, three weeks after application
# Summary of the method: as §3
# redroot pigweed [22] = test: Test Example 5: herbicidal effect by foliage application, plastic box (Table 20, symbol N); type: in vivo, redroot pigweed (Amaranthus retroflexus); details: foliage application, 320 g/ha, three weeks after application
# Summary of the method: as §3
# lambsquarters [23] = test: Test Example 5: herbicidal effect by foliage application, plastic box (Table 20, symbol O); type: in vivo, lambsquarters (Chenopodium album); details: foliage application, 320 g/ha, three weeks after application
# Summary of the method: as §3
# chickweed [24] = test: Test Example 5: herbicidal effect by foliage application, plastic box (Table 20, symbol P); type: in vivo, common chickweed (Stellaria media); details: foliage application, 320 g/ha, three weeks after application
# Summary of the method: as §3
# persian speedwell [25] = test: Test Example 5: herbicidal effect by foliage application, plastic box (Table 20, symbol R); type: in vivo, Persian speedwell (Veronica persica); details: foliage application, 320 g/ha, three weeks after application
# Summary of the method: as §3
compound,measurement,setting,value
CCc1nn(C)c(=O)c(-c2c(-c3ccc(Cl)cc3)sc3ccc(F)cc23)c1O [2-408],herbicidal effect on H: barnyard grass,barnyard grass [1],4 (Herbicidal rate of 70% or more and less than 90%)
same,herbicidal effect on D: Chinese sprangletop,Chinese sprangletop,4 (Herbicidal rate of 70% or more and less than 90%)
same,herbicidal effect on E: rice flat sedge,rice flat sedge,5 (Herbicidal rate of 90% or more (almost completely withered))
same,"herbicidal effect, F: southern crabgrass",southern crabgrass [2],0 (Herbicidal rate of 5% or less (almost no effect))
same,"herbicidal effect, G: green foxtail",green foxtail [3],0 (Herbicidal rate of 5% or less (almost no effect))
same,"herbicidal effect, H: barnyard grass",barnyard grass [4],0 (Herbicidal rate of 5% or less (almost no effect))
same,"herbicidal effect, I: wild oat",wild oat [5],0 (Herbicidal rate of 5% or less (almost no effect))
same,"herbicidal effect, J: blackgrass",blackgrass [6],0 (Herbicidal rate of 5% or less (almost no effect))
same,"herbicidal effect, K: Italian ryegrass",Italian ryegrass [7],0 (Herbicidal rate of 5% or less (almost no effect))
same,"herbicidal effect, L: windgrass",windgrass [8],0 (Herbicidal rate of 5% or less (almost no effect))
same,"herbicidal effect, M: velvetleaf",velvetleaf [9],1 (Herbicidal rate of 5% or more and less than 20%)
same,"herbicidal effect, N: redroot pigweed",redroot pigweed [10],4 (Herbicidal rate of 70% or more and less than 90%)
same,"herbicidal effect, O: lambsquarters",lambsquarters [11],3 (Herbicidal rate of 40% or more and less than 70%)
same,"herbicidal effect, P: chickweed",chickweed [12],0 (Herbicidal rate of 5% or less (almost no effect))
same,"herbicidal effect, R: persian speedwell",persian speedwell [13],0 (Herbicidal rate of 5% or less (almost no effect))
same,"F: southern crabgrass, herbicidal effect grade",southern crabgrass [14],4 (Herbicidal rate of 70% or more and less than 90%)
same,"G: green foxtail, herbicidal effect grade",green foxtail [15],5 (Herbicidal rate of 90% or more (almost completely withered))
same,"H: barnyard grass, herbicidal effect grade",barnyard grass [16],3 (Herbicidal rate of 40% or more and less than 70%)
same,"I: wild oat, herbicidal effect grade",wild oat [17],1 (Herbicidal rate of 5% or more and less than 20%)
same,"J: blackgrass, herbicidal effect grade",blackgrass [18],0 (Herbicidal rate of 5% or less (almost no effect))
same,"K: Italian ryegrass, herbicidal effect grade",Italian ryegrass [19],3 (Herbicidal rate of 40% or more and less than 70%)
same,"L: windgrass, herbicidal effect grade",windgrass [20],0 (Herbicidal rate of 5% or less (almost no effect))
same,"M: velvetleaf, herbicidal effect grade",velvetleaf [21],4 (Herbicidal rate of 70% or more and less than 90%)
same,"N: redroot pigweed, herbicidal effect grade",redroot pigweed [22],5 (Herbicidal rate of 90% or more (almost completely withered))
same,"O: lambsquarters, herbicidal effect grade",lambsquarters [23],5 (Herbicidal rate of 90% or more (almost completely withered))
same,"P: chickweed, herbicidal effect grade",chickweed [24],5 (Herbicidal rate of 90% or more (almost completely withered))
same,"R: persian speedwell, herbicidal effect grade",persian speedwell [25],5 (Herbicidal rate of 90% or more (almost completely withered))
